One compound from US5036072A, “Antiviral agent” (Ishihara Sangyo Kaisha Ltd., priority 1989, dated 1991) can be followed below.

The test system of experiment [1] is reverse transcriptase derived from bird's myeloblastosis virus. The experiment in a line: inhibition of the reverse transcriptase activities. Format: biochemical. The following applies: 37° C. for 60 minutes, [3H]-TTP incorporation. On the procedure: Now, the effects of the antiviral agent of the present invention for inhibition of the reverse transcriptase activities will be shown.
The test solution comprised magnesium chloride (5 mM), DTT (5 mM), sodium chloride (60 mM), [^3 H]-TTP (0.2 mM), poly(λA) (10 μg/ml), Oligo (dT) (0.04 U/ml), reverse transcriptase derived from bird's myeloblastosis virus (3 U/ml) and Tris hydrochloric acid (pH 8.0). Compound 3 was dissolved in cyclodextrin to obtain a solution having a concentration of 5 mg/ml, which was then diluted with water to a predetermined concentration for use.
Then, 50 μl of the test solution and 50 μl of the sample solution were mixed, and the mixture was incubated at 37° C. for 60 minutes. Then, 50 μl of the incubated solution was sampled and soaked into a DEA filter paper. Then, this filter paper was washed with a 5% sodium monohydrogen phosphate solution and then with water and ethanol, followed by drying. The radioactivity contained in the captured fraction was measured by means of a scintillation counter. Then, the inhibition rate (%) of the sample Compound 3 was calculated from the radioactivity of the test sample group and that of the control group.

In experiment [2] the test system is helpes simplex virus (1-type, KOS strain). The experiment in a line: plaque-reduction evaluation method in Verocells. Format: cell-based. Conditions: drug added one hour after infection, counted three days later. The procedure: The antiviral activities were evaluated by a plaque-reduction evaluation method. Verocells were inoculated to a plastic Petri dish and then proliferated until they formed a monolayer. To each Petri dish, a predetermined number of plaque-forming units (about 100 to 500) of helpes simplex virus (1-type, KOS strain) were infected. Compound 3 was dissolved in 2% of bovine fetus serum inactivated by heating and adjusted to a predetermined concentration. One hour after the infection, the drug solution was added to the cultivation Petri dish (8 ml/Petri dish). Three days later, the cultivation Petri dish was fixed by formalin and dyed with Crystal Violet, whereupon the number of plaques was counted.

One may read the inhibition as the percentage by which the read-out fell short of the control. A low value points to a response near the control. `O=C(NC(=O)c1ccccc1[N+](=O)[O-])Nc1ccc(Oc2ncc(Br)cn2)c(Cl)c1` [Compound 3]: the “Inhibition rate (%)” value in experiment [1] (1.25 μg/ml) is listed as 6%; in experiment [1] (2.5 μg/ml) it was 11%; in experiment [1] (5 μg/ml), 34%; in experiment [1] (10 μg/ml), 57%. Also, the Number of plaques in experiment [2] (1 μg/ml) is on record as 264.5; in experiment [2] (2.5 μg/ml), 122.0; in experiment [2] (5 μg/ml), 27.5. The compound also had an inhibition at 1 µg/mL in experiment [2] (1 μg/ml) of 45.1%. In addition, in experiment [2] (2.5 μg/ml), at 2.5 µg/mL the inhibition was 74.7%. The same compound yielded an inhibition at 5 µg/mL in experiment [2] (5 μg/ml) of 94.3%.
